Measurements published in patent publication US20230346952A1, “CANNABINOID GLYCOSIDE PRODRUGS AND METHODS OF SYNTHESIS” (priority 2015, published 2023).

Legend:
Assay in all cases: biochemical
[1] = target: safety screen panel of human pharmacological targets (Homo sapiens, UniProt P20309); settings: read-out: percent inhibition: M3 (h) (antagonist radioligand)
[2] = target: safety screen panel of human pharmacological targets (Homo sapiens, UniProt P31645); settings: read-out: percent inhibition: 5-HT transporter (h) (antagonist radioligand)
[3] = target: safety screen panel of human pharmacological targets (Homo sapiens, UniProt P37288); settings: read-out: percent inhibition: V1a (h) (agonist radioligand)
[4] = target: T1, safety screen panel of human pharmacological targets (Homo sapiens, UniProt P08908); settings: read-out: percent inhibition: 5-HT1A(h) {agonist radiogilgand)
T1 sequence (P08908 1-422): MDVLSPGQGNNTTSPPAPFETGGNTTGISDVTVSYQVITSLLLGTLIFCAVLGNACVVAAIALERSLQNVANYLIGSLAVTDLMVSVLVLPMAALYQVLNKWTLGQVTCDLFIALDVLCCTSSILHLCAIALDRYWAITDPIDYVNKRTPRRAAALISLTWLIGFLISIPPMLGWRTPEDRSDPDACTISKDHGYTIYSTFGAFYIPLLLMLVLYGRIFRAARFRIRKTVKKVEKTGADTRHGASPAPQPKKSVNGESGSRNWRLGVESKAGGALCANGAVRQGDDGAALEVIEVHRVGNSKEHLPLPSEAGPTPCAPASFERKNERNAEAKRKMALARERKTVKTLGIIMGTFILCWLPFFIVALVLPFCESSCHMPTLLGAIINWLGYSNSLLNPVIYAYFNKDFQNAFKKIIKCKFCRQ

[5] = target: safety screen panel of human pharmacological targets (Rattus norvegicus, UniProt P28564); settings: read-out: percent inhibition: 5-HT1B (antagonist radioligand)
[6] = target: safety screen panel of human pharmacological targets (Homo sapiens, UniProt P21728); settings: read-out: percent inhibition: D1 (h) (antagonist radioligand)
[7] = target: T2, safety screen panel of human pharmacological targets (Homo sapiens, UniProt P25101); settings: read-out: percent inhibition: ETA (h) (agonist radioligand)
T2 sequence (P25101 21-427): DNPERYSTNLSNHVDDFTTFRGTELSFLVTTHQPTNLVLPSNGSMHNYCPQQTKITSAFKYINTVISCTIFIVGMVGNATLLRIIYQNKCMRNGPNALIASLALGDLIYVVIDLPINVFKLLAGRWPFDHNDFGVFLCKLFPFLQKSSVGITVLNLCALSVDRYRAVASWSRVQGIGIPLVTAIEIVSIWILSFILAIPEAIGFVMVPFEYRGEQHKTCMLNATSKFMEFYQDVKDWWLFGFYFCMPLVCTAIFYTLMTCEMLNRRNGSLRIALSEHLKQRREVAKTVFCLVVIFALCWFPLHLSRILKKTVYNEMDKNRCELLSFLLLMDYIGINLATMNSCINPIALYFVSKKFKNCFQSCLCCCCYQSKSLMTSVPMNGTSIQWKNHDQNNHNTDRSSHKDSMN

[8] = target: safety screen panel of human pharmacological targets (Homo sapiens, UniProt P35372); settings: read-out: percent inhibition: mu (MOP) (h) (agonist radioligand)
[9] = target: safety screen panel of human pharmacological targets (Homo sapiens, UniProt P41595); settings: read-out: percent inhibition: 5-HT2B (h) (agonist radioligand)
[10] = target: safety screen panel of human pharmacological targets (Homo sapiens, UniProt Q14432); settings: read-out: percent inhibition: PDE3A (h)
[11] = target: safety screen panel of human pharmacological targets (Homo sapiens, UniProt Q01959); settings: read-out: percent inhibition: dopamine transporter (b) (antagonist radioligand)
[12] = target: T3, safety screen panel of human pharmacological targets (Homo sapiens, UniProt P08172); settings: read-out: percent inhibition: M2 (h) (antagonist radioligand)
T3 sequence (P08172 1-466): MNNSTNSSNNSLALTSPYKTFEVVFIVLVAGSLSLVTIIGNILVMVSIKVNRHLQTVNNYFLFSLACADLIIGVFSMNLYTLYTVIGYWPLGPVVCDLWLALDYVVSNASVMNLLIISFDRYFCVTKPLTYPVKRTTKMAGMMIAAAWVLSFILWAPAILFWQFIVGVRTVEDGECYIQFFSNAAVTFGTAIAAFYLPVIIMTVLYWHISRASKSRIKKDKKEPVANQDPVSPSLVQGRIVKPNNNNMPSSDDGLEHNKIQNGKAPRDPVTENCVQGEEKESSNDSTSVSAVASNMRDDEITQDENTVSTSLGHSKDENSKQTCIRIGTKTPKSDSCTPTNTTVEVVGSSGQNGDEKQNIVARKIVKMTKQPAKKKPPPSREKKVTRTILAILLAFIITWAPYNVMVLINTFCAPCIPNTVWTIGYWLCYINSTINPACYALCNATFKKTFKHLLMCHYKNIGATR

safety screen panel of human pharmacological targets (Homo sapiens, UniProt Q14432), sequence (Q14432 whole entry): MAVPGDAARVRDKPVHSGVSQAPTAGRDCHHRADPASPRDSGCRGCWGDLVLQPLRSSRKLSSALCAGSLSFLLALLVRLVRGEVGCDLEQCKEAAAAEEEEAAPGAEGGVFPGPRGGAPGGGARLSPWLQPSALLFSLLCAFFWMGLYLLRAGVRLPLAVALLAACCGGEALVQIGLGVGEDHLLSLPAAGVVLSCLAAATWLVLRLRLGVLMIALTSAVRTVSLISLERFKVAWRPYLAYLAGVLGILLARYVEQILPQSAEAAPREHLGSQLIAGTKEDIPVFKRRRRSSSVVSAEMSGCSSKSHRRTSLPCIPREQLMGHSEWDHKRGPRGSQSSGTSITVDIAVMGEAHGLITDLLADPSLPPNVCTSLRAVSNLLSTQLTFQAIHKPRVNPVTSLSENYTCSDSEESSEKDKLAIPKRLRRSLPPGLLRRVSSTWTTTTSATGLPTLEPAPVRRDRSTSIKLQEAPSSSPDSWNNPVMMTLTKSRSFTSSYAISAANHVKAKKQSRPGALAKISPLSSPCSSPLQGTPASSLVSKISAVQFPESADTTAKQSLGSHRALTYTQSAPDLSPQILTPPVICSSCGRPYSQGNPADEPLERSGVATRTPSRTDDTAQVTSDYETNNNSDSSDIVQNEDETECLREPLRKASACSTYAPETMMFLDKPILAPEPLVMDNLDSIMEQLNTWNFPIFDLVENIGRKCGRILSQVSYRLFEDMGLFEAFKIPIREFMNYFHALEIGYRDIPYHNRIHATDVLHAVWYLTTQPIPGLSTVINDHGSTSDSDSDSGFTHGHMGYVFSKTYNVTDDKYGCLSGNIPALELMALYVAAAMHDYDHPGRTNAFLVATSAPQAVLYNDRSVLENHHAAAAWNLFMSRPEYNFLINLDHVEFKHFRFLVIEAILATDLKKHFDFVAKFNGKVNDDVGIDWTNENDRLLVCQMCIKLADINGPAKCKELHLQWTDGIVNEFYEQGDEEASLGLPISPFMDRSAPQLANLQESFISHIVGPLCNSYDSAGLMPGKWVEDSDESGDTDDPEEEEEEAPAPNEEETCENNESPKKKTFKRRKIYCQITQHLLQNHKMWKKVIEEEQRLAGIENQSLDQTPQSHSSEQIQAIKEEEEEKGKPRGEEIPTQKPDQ
safety screen panel of human pharmacological targets (Homo sapiens, UniProt P31645), sequence (P31645 whole entry): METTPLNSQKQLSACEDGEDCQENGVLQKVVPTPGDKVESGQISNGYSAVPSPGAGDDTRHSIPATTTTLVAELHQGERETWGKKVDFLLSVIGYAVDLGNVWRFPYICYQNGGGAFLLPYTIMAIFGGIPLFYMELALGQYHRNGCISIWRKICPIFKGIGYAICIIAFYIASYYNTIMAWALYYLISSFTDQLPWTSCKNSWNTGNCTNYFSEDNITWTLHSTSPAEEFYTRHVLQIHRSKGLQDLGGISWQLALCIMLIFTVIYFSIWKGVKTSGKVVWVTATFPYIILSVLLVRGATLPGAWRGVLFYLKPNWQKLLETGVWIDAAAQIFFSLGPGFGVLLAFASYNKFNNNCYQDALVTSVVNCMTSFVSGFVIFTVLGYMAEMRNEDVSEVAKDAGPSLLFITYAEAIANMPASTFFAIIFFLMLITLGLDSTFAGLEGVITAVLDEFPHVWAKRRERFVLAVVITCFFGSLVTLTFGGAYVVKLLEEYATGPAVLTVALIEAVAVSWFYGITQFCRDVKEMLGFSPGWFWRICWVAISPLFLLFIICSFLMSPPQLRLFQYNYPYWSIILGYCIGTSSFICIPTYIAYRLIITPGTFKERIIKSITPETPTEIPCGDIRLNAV
safety screen panel of human pharmacological targets (Rattus norvegicus, UniProt P28564), sequence (P28564 whole entry): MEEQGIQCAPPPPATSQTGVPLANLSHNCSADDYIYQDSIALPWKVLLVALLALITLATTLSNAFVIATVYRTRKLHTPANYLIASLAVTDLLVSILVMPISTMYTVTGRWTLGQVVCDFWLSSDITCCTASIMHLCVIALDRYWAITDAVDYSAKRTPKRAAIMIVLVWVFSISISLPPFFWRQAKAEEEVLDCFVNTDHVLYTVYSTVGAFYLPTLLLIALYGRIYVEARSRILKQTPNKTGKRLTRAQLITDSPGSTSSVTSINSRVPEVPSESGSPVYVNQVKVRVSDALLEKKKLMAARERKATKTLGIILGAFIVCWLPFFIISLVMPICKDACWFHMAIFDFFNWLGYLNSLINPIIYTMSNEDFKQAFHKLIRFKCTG
safety screen panel of human pharmacological targets (Homo sapiens, UniProt P37288), sequence (P37288 whole entry): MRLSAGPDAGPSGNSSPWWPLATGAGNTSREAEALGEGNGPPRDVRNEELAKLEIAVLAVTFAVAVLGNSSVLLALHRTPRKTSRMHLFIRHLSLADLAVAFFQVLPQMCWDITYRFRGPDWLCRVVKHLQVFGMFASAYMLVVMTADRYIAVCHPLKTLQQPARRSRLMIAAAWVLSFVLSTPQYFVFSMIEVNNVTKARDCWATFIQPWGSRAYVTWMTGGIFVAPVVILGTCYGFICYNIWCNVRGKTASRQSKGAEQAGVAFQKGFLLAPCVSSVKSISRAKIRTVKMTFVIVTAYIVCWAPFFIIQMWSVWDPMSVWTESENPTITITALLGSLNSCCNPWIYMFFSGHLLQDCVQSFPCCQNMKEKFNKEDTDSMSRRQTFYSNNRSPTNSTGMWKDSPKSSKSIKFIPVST
safety screen panel of human pharmacological targets (Homo sapiens, UniProt P41595), sequence (P41595 whole entry): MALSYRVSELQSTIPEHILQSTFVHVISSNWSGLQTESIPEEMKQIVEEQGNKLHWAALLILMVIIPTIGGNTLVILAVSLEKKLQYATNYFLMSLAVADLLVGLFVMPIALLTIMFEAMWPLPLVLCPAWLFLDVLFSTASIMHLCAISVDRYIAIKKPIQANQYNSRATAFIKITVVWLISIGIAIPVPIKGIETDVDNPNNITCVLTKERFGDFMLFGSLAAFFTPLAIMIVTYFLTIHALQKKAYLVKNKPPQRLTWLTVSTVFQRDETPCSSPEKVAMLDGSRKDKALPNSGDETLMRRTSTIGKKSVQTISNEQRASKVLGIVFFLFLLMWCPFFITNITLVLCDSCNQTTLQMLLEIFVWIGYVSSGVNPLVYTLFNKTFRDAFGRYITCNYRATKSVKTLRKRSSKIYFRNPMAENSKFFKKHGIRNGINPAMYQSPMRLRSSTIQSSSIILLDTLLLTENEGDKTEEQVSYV
safety screen panel of human pharmacological targets (Homo sapiens, UniProt Q01959), sequence (Q01959 whole entry): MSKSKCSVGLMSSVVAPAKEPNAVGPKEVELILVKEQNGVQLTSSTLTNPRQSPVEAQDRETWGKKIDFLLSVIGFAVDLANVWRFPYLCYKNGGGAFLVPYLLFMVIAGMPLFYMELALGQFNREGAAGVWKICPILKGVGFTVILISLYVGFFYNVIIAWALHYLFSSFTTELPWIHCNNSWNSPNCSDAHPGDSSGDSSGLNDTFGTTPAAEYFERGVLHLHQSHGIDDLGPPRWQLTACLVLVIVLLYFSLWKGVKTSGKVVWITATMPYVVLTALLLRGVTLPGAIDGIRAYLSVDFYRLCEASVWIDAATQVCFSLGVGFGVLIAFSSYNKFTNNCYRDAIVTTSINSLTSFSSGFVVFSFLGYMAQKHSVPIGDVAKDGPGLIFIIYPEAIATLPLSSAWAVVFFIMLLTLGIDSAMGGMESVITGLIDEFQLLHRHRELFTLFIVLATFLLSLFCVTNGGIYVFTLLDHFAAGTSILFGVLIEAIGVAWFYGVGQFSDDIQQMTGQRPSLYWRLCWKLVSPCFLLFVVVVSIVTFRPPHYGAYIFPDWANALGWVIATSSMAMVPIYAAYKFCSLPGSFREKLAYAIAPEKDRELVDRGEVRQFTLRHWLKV
safety screen panel of human pharmacological targets (Homo sapiens, UniProt P35372), sequence (P35372 whole entry): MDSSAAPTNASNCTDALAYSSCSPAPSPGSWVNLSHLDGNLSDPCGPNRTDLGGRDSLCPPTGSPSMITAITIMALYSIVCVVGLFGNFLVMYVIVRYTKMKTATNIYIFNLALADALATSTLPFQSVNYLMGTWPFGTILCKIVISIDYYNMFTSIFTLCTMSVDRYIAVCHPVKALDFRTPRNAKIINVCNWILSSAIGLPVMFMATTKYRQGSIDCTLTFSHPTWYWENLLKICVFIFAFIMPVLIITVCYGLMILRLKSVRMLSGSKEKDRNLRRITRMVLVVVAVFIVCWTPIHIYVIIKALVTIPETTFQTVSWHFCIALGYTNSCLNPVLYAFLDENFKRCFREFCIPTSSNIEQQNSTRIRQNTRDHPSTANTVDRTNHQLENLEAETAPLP
safety screen panel of human pharmacological targets (Homo sapiens, UniProt P21728), sequence (P21728 whole entry): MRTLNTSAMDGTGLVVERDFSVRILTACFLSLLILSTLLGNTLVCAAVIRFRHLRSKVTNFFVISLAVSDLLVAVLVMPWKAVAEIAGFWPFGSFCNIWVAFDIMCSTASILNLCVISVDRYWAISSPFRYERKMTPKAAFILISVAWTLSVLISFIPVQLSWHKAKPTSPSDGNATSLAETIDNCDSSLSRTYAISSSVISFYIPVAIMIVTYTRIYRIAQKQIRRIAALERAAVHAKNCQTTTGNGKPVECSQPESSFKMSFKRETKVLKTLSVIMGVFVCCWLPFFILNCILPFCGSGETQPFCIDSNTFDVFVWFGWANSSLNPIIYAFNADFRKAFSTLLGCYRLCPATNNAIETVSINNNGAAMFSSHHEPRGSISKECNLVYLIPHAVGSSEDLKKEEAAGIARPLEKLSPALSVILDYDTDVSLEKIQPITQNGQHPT

Compound	inhibition at 10 µM [1] [%]	inhibition at 10 µM [2] [%]	inhibition at 10 µM [3] [%]	inhibition at 10 µM [4] [%]	inhibition at 10 µM [5] [%]	inhibition at 10 µM [6] [%]	inhibition at 10 µM [7] [%]	inhibition at 10 µM [8] [%]	inhibition at 10 µM [9] [%]	inhibition at 10 µM [10] [%]	inhibition at 10 µM [11] [%]	inhibition at 10 µM [12] [%]
CCCCCc1cc(O[C@@H]2O[C@H](CO)[C@@H](O)[C@H](O)[C@H]2O)c2c(c1)OC(C)(C)[C@@H]1CCC(C)=C[C@@H]21 [VB302, Δ9THC-1-O-glucopyranoside]	11	-1	8	6	-1	4	-21	-5	-5	-44	18	2
CCCCCc1cc(O)c2c(c1)OC(C)(C)[C@@H]1CCC(C)=C[C@@H]21 [VB301, Δ9-Terahydrocannabinol, reference compound]	23	91	-2	-27	26	75	14	89	90	-4	101	21
CCCCCc1cc(O[C@@H]2O[C@H](CO[C@@H]3O[C@H](CO)[C@@H](O)[C@H](O)[C@H]3O)[C@@H](O[C@@H]3O[C@H](CO)[C@@H](O)[C@H](O)[C@H]3O)[C@H](O)[C@H]2O)c2c(c1)OC(C)(C)[C@@H]1CCC(C)=C[C@@H]21 [VB311]	-5	3	7	-6	-7	37	9	5	-7	-6	28	-4
